Columns and labels:
[1] = Terminal half life in Sprague-Dawley rat at 1 mg/kg, iv; type: ADME, organism-based; settings: in vivo, read-out: beta t1/2 (converted)
[2] = Protein binding in rat plasma; type: ADME, cell-free; settings: read-out: PPB (converted)
[3] = Oral bioavailability in Sprague-Dawley rat at 3 mg/kg; type: ADME, organism-based; settings: in vivo
[4] = Protein binding in human plasma; type: ADME, cell-free; settings: read-out: PPB (converted)
[5] = Cmax in Sprague-Dawley rat at 3 mg/kg, po; type: ADME, organism-based; set-up: route oral, dose 3 mg/kg; settings: in vivo
[6] = Terminal half life in Balb/C mouse at 1 mg/kg, iv; type: ADME, organism-based; settings: in vivo, read-out: beta t1/2 (converted)
[7] = Intrinsic clearance in mouse liver microsomes; type: ADME, Microsome; settings: read-out: CLH
[8] = AUC (0 to 24 hrs) in Balb/C mouse at 3 mg/kg, po; type: ADME, organism-based; set-up: time < 24 hr, route oral, dose 3 mg/kg; settings: in vivo
[9] = Cmax in Balb/C mouse at 3 mg/kg, po; type: ADME, organism-based; set-up: route oral, dose 3 mg/kg; settings: in vivo
[10] = Intrinsic clearance in human liver microsomes; type: ADME, Microsome; settings: read-out: CLH
[11] = Apparent volume of distribution at steady state in Sprague-Dawley rat at 1 mg/kg, iv; type: ADME, organism-based; settings: in vivo, read-out: Vdss(app)
[12] = Clearance in Balb/C mouse at 1 mg/kg, iv; type: ADME, organism-based; settings: in vivo
[13] = AUC (0 to 24 hrs) in Sprague-Dawley rat at 3 mg/kg, po; type: ADME, organism-based; set-up: time < 24 hr, route oral, dose 3 mg/kg; settings: in vivo
[14] = Oral bioavailability in Balb/C mouse at 3 mg/kg; type: ADME, organism-based; settings: in vivo
[15] = Intrinsic clearance in rat liver microsomes; type: ADME, Microsome; settings: read-out: CLH
[16] = Apparent volume of distribution at steady state in Balb/C mouse at 1 mg/kg, iv; type: ADME, organism-based; settings: in vivo, read-out: Vdss(app)
[17] = Clearance in Sprague-Dawley rat at 1 mg/kg, iv; type: ADME, organism-based; settings: in vivo
[18] = Lipophilicity, logP of the compound; settings: octanol/water
[19] = system: Rattus norvegicus; assay: Anti-autoimmune disease activity in OFA rat model of T-cell dependent B cell response assessed as reduction in SRBC-induced IgM producing B cells at 10 mg/kg, po BID for 4 days starting 2 days prior to immunization by ex vivo plaque forming assay relative to control; settings: 96 h, read-out: INH
[20] = Half life in rat at 1 mg/kg, iv via cassette dosing; type: ADME, organism-based; settings: in vivo
[21] = Clearance in rat at 1 mg/kg, iv via cassette dosing; type: ADME, organism-based; settings: in vivo
[22] = system: Rattus norvegicus; assay: Anti-autoimmune disease activity in OFA rat model of T-cell dependent B cell response assessed as reduction in SRBC-induced IgM producing B cells dosed orally twice daily for 4 days starting 2 days prior to immunization by ex vivo plaque forming assay relative to control; type: functional
[23] = Cmax in blood of OFA rat model of T-cell dependent B cell response at 3 mg/kg, po BID for 4 days starting 2 days prior to immunization and measured after 14 hrs; type: ADME, organism-based; set-up: route oral, dose 3 mg/kg, time 4 day
[24] = Cmax in blood of OFA rat model of T-cell dependent B cell response at 10 mg/kg, po BID for 4 days starting 2 days prior to immunization and measured after 3 hrs; type: ADME, organism-based; set-up: route oral, dose 10 mg/kg, time 4 day
[25] = system: Rattus norvegicus; assay: Anti-autoimmune disease activity in OFA rat model of T-cell dependent B cell response assessed as reduction in SRBC-induced IgM producing B cells at 3 mg/kg, po BID for 4 days starting 2 days prior to immunization by ex vivo plaque forming assay relative to control; settings: 96 h, read-out: INH
[26] = Cmax in blood of OFA rat model of T-cell dependent B cell response at 3 mg/kg, po BID for 4 days starting 2 days prior to immunization and measured after 3 hrs; type: ADME, organism-based; set-up: route oral, dose 3 mg/kg, time 4 day
[27] = Cmax in blood of OFA rat model of T-cell dependent B cell response at 10 mg/kg, po BID for 4 days starting 2 days prior to immunization and measured after 14 hrs; type: ADME, organism-based; set-up: route oral, time 4 day, dose 10 mg/kg
[28] = molecular target: T1, Mucosa-associated lymphoid tissue lymphoma translocation protein 1 (Homo sapiens, UniProt Q9UDY8); assay: Inhibition of MALT1 (unknown origin) using Ac-Trp-Leu-Arg-Ser-Arg^Cys(PT14)-NH2 as substrate preincubated for 60 mins followed by substrate addition and measured after 60 mins by fluorescence assay
T1 sequence (Q9UDY8 whole entry): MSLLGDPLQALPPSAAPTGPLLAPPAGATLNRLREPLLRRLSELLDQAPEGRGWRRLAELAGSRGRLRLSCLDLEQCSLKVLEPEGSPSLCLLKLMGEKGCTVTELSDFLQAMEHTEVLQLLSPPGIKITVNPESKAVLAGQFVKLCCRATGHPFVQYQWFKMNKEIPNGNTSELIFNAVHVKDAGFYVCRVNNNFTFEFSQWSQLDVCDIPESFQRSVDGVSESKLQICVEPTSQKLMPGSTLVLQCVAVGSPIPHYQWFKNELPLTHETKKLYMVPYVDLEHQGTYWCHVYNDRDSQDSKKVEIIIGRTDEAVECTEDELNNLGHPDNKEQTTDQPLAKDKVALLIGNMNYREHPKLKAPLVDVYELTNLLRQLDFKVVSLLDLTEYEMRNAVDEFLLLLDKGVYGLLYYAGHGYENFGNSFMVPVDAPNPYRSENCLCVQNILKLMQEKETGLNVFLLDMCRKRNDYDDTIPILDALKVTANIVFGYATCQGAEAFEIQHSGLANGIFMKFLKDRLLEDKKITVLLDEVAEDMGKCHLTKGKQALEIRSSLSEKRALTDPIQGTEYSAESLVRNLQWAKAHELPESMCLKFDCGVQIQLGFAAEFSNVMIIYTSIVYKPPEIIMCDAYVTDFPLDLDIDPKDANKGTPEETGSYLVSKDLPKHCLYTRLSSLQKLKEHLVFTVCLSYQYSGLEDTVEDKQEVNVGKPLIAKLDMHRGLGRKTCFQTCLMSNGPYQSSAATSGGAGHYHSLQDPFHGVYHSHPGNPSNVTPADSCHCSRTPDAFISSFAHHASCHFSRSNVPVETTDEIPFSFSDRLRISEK

[29] = molecular target: T2, Mucosa-associated lymphoid tissue lymphoma translocation protein 1 (Homo sapiens) (UniProt Q9UDY8); assay: Ratio of IC50 for inhibition of MALT1 in human whole blood assessed as reduction in PMA//anti-CD28 antibody-induced IL2 level to IC50 for inhibition of MALT1 in PMA-stimulated human Jurkat T cells assessed as reduction in IL2 level; type: tissue-based
T2 sequence (whole entry): T1 sequence (Q9UDY8 whole entry)

[30] = Clearance in mouse; type: ADME, organism-based; settings: in vivo
[31] = molecular target: T1, Mucosa-associated lymphoid tissue lymphoma translocation protein 1; assay: Inhibition of MALT1 in human whole blood assessed as reduction in PMA//anti-CD28 antibody-induced IL2 level pre-incubated for 1 hrs before stimulation with PMA//anti-CD28 antibody by MSD assay; type: tissue-based
[32] = Clearance in rat; type: ADME; settings: in vivo

Structure (SMILES)	fraction unbound [2]	fraction unbound [4]	microsomal CLint [7] [µL/min/mg]	microsomal CLint [10] [µL/min/mg]	microsomal CLint [15] [µL/min/mg]	logP [18]	also measured
CO[C@@H](C)c1c(NC(=O)Nc2ccnc(C(F)(F)F)c2)cnc2cc(Cl)nn12	0.027	0.038	< 25	< 25	< 25		half-life [1]: 576 min; bioavailability [3]: 86%; Cmax [5]: 700 nM; half-life [6]: 72 min; AUC [8]: 2.3 µM·h; Cmax [9]: 500 nM; Vd [11]: 5.3 L/kg; clearance [12]: 28 mL/min/kg; AUC [13]: 13.4 µM·h; bioavailability [14]: 50%; Vd [16]: 3 L/kg; clearance [17]: 9 mL/min/kg
COCc1c(NC(=O)Nc2cnc(-n3nccn3)c(Cl)c2)cnc2cc(Cl)nn12	0.035	0.019		< 25	< 25	3	
O=C(Nc1cnc(-n2nccn2)c(Cl)c1)Nc1cnc2cc(Cl)nn2c1C1CC1	0.013	< 0.01	< 25	< 25	50.4	3.2	
O=C(Nc1cnc(-n2nccn2)c(Cl)c1)Nc1cnc2cc(Cl)nn2c1C1CCOCC1	0.023	0.012		< 25	25.5	3	
CC(C)c1c(NC(=O)Nc2cnc(-n3nccn3)c(Cl)c2)cnc2cc(Cl)nn12	< 0.01	< 0.01	< 25	< 25	< 25	4	inhibition in vivo at 10 mg/kg [19]: 96%; half-life [20]: 324 min; clearance [21]: 18 mL/min/kg; ED50 ([22]; po, 96 h, time 4 day): 3 mg/kg; Activity ([22]; time 4.0 day): Dose-dependent effect; Cmax [23]: 400 nM; Cmax [24]: 7.6 µM; inhibition in vivo at 3 mg/kg [25]: 60%; Cmax [26]: 1500 nM; Cmax [27]: 3.3 µM
COC[C@H](C)c1c(NC(=O)Nc2cnc(-n3nccn3)c(Cl)c2)cnc2cc(Cl)nn12	0.012	0.014	< 25	81.4	60.9	3.4	
Cc1c(NC(=O)Nc2ccnc(C(F)(F)F)c2)cnc2cc(Cl)nn12				< 25	< 25		IC50 [28]: 998 nM
CO[C@H](C)c1c(NC(=O)Nc2cnc(-n3nccn3)c(Cl)c2)cnc2cc(Cl)nn12	0.032	0.023			< 25		
COC[C@@H](C)c1c(NC(=O)Nc2cnc(-n3nccn3)c(Cl)c2)cnc2cc(Cl)nn12	0.011	0.015		< 25	70.1	3.4	
C[C@H]1COC[C@H](C)N1c1c(NC(=O)Nc2ccnc(C(F)(F)F)c2)cnc2cc(Cl)nn12				114			half-life [20]: 198 min; clearance [21]: 46 mL/min/kg; Ratio IC50 [29]: 50; clearance [30]: 15 mL/min/kg; IC50 [31]: 9 µM; clearance [32]: 25 mL/min/kg
CC(C)c1c(NC(=O)Nc2ccnc(C(F)(F)F)c2)cnc2cc(Cl)nn12				61	< 25		

Source: ChEMBL document CHEMBL4699655, “Optimization of the In Vivo Potency of Pyrazolopyrimidine MALT1 Protease Inhibitors by Reducing Metabolism and Increasing Potency in Whole Blood” (J Med Chem, 2020)
